The text below walks through data of patent publication US8501683B2, “Cycloundecadepsipeptide compounds and use of said compounds as a medicament” (priority 2008, dated 2013).

As usually defined, the IC50 is the midpoint of a concentration-inhibition curve. The term EC50 denotes the concentration at which the effect is half-maximal. Read a high EC50 as a need for much substance. A word on the CC50: it is the concentration giving 50% cytotoxicity. Read a high CC50 as better tolerance by the cells.

Square brackets hold non-standard residues; d marks the D form. Peptide text beside a SMILES is read from it. MeBmt = C/C=C/C[C@@H](C)[C@@H](O)[C@H](NC)C(=O)O; NEtVal = CCN[C@H](C(=O)O)C(C)C; NMeL = CN[C@@H](CC(C)C)C(=O)O; NMeV = CN[C@H](C(=O)O)C(C)C; dHiv = CC(C)[C@@H](O)C(=O)O; dNMeA = CN[C@H](C)C(=O)O; Abu = CC[C@H](N)C(=O)O

In series [1] the test system is Concanavalin-A-induced T-cell proliferation. Nature of the series: Concanavalin-A-induced T-cell proliferation assay (immunosuppression). The settings on record: inhibition of Concanavalin-A-induced T-cell proliferation. The class given is cell-based. On the procedure:
To determine whether the cycloundecadepsipepide compounds of the present invention have a non-immunosuppression activity, experiments were carried out that compared the dose-dependent inhibition of Concanavalin-A-induced T-cell proliferation (see Table 2).
The method of the assays were performed as described by Dayton et al. (1992. Mol. Pharmacol. 41. 671-676) and Mishell et al. (1980. Cell proliferation in selected methods in cellular immunology, V, XXIX, W.H. Freeman Co., San Francisco, Calif. 153-160).

The target of series [2] is organic anion transporting polypeptide 1B1 (OATP1B1) (Homo sapiens, UniProt Q9Y6L6). How it is done: (§1) To determine whether the cycloundecadepsipeptide compounds of the present invention interact with hepatic transporters, experiments were carried out that compared the concentration-dependent inhibition towards the multidrug resistance associated protein 2 (MRP2), the organic anion transporting polypeptide 1B1 (OATP1B1), the bile salt export pump (BSEP) and the sodium-taurocholate cotransporting polypeptide (NTCP). These transporters are involved in the hepatobiliary circulation of endogenous compounds such as bile salts or bilirubin (for a review, see C. Pauli-Magnus et al, J. Hepatology, 2005, 43:342-357). Some of them also contribute to the elimination of xenobiotics.
OATP1B1 and NTCP assays were performed with Chinese hamster ovary (CHO) cells expressing these human uptake transporters. The amount of the transported probe substrate (estrone-3-sulfate and taurocholate for OATP1B1 and NTCP, respectively) was determined by liquid scintillation or fluorescent photometry after cell lysis.
(§2) The IC50 (defined as the concentration required for inhibiting the transport of the probe substrate by 50%, half maximal inhibitory concentration) of the compounds was derived from the concentration-response curve and compared to the IC50 of Debio 025 (IC50 ratio expressed as “fold Debio 025” in the tables).

In series [3] the target is multidrug resistance associated protein 2 (MRP2) (Homo sapiens, UniProt Q92887). The settings on record: for MRP2 fold Debio 025: IC50 ratio compared to Debio 025. On the procedure: as §1
(§3) MRP2 and BSEP were expressed by SOLVO Biotechnology in Spodoptera frugiperda (Sf9) ovarian cells, by infecting the insect cells with a recombinant baculovirus. The inhibition of the transport of the radioactive probe substrates (estradiol-17-beta-glucuronide and taurocholate for MRP2 and BSEP, respectively) into inside-out membrane vesicles, containing the transporter, was measured by scintillation counting.
as §2

In series [4] the target is bile salt export pump (BSEP) (Homo sapiens, UniProt O95342). The conditions noted are these: for BSEP fold Debio 025: IC50 ratio compared to Debio 025. On the procedure: as §1, §3, §2
The test system of series [5] is hepatitis C virus genotype 1b Con1 replicon. Description: HCV replicon assay, replicon RNA by RT-qPCR in Huh 9-13 cells. In kind it is cell-based. The settings on record: 50% inhibition of HCV replicon replication, 3 dose-response curves. A general note: Replicon systems follow genome replication, usually without infectious particles.
Experimental: For the evaluation of antiviral effects, assay medium was aspirated and the plates with dry monolayer were stored at −80° C. awaiting extraction. Following thawing of the plates at room temperature, the cell monolayer was lysed with 100 μl of cell-to-cDNA lysis buffer (Invitrogen). Lysis of the cells was allowed to proceed for 10 min at room temperature after which all liquid was transferred to a PCR plate (Axygen). The PCR plate was incubated for 15 min at 75° C. […] The lysate was diluted 1:2 with RNase/DNase-free water, after which 5 μl was transferred to the real-time PCR plate (Applied Biosystems).
Replicon RNA content was quantified using a real-time quantitative one-step RT-PCR method (RT-qPCR): Low Rox One-Step RT-qPCR master mix, Abgene). […] The fluorogenic probe was 5′-[sequence]-3′. The analysis of the samples were performed using a SDS7500F (Applied Biosystems, standard thermocycling profile: 30 min at 48° C., 10 min at 95° C., 40 cycles of 15 sec at 95° C. and 1 min at 60° C.) after which replicon RNA quantities were converted to percentage of untreated controls.
The target in series [6] is T1, sodium-taurocholate cotransporting polypeptide (NTCP) (Homo sapiens, UniProt Q14973).
T1 sequence (Q14973 1-349): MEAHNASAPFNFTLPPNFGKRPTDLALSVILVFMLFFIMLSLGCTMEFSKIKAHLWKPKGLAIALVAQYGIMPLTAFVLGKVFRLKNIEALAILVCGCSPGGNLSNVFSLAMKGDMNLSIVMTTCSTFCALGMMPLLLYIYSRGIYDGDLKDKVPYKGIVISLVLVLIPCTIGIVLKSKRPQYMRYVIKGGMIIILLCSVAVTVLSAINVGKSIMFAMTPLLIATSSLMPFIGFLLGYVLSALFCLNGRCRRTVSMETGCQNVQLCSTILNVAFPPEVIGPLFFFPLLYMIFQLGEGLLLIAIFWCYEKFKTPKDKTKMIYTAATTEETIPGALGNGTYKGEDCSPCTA
Nature of the series: NTCP inhibition, taurocholate uptake in CHO cells. In kind it is in vitro ADME. The conditions noted are these: for NTCP fold Debio 025: IC50 ratio compared to Debio 025.

Series [7] in a line: Cytostatic/cytotoxic effect, MTT (MTS) assay in Huh 9-13 cells. In kind it is cell-based. The conditions noted are these: human, Huh 9-13 cells containing the HCV genotype 1b Con1 replicon, metabolic activity reduced to 50% of untreated cells. An excerpt:
Assays used Huh 9-13 containing the hepatitis C virus genotype 1b Con1 replicon (Lohmann et al. 2001. J. Virol. 75:1437-1449; and Lohmann et al. 1999. Science. 285:110-113). Cells were sub-cultured in cell growth medium DMEM supplemented with 10% FCS, 1% non-essential amino acids, 1% penicillin/streptomycin and 2% Geneticin (Invitrogen) at a ratio of 1:4-1:5 and grown for 3-4 days in 75 cm^2 tissue culture flasks (Techno Plastic Products), were harvested and seeded in assay medium (DMEM, 10% FCS, 1% non-essential amino acids, 1% penicillin/streptomycin) at a density of 5 000 cells/well (100 μl/well) in 96-well tissue culture microtiter plates (Falcon, Beckton Dickinson) for evaluation of cytostatic/cytotoxic and antiviral effect. The microtiter plates were incubated overnight (37° C., 5% CO2, 95-99% relative humidity), yielding a non-confluent cell monolayer.
Cell density and cytostatic effects were estimated in parallel cultures in regular 96-well plates (Beckton-Dickinson) using the MTT assay (CellTiter 96 AQueous Non-Radioactive Cell Proliferation Assay, Promega). In this assay, 3-(4,5-dimethyl-thiazol-2-yl)-5-(3-carboxymethoxy-phenyl)-2-(4-sulfophenyl)-2H-tetrazolium (MTS) is bioreduced to a formazan that is quantified at 498 nm in a plate reader. Formazan production is directly correlated with number of life cells. Absorbance was measured at a wavelength of 498 nm (Safire^2, Tecan) and optical densities (OD values) were converted to percentage of untreated controls.
The compounds were dissolved in DMSO at a concentration of 4 mmole/L. Stock solutions were immediately used to set up the experiments. The compounds were tested at 24 different concentrations ranging from 0.0001 μmole/L to 100 μmole/L. The highest concentration of DMSO in the assay was determined to be 2.5% (at 100 μM final concentration of the compound). During the assay setup, the DMSO percentage decreased concomitantly with decrease in concentration of the compound.
The EC50 (value derived from the dose-response curve) represents the concentration at which 50% inhibition of viral replication is observed. The CC50 (value derived from the dose-response curve) represents the concentration at which the metabolic activity of the cells is reduced to 50% of the metabolic activity of untreated cells.
Results from these experiments permitted calculation of EC50±SD (standard deviation or Std. Dev.), which is the effective concentration required to inhibit HCV replicon replication by 50%, and of CC50±SD (whenever possible), which is the concentration required that inhibits the proliferation of exponentially growing cells by 50%. EC50 and CC50±SD values were calculated respectively as the median of all the EC50, or CC50 values derived from the 3 individual dose-response curves. The selectivity index (SI), indicative of the therapeutic window of the compound was calculated as the ratio between CC50 and EC50.

organic anion transporting polypeptide 1B1 (OATP1B1), sequence (Q9Y6L6 whole entry): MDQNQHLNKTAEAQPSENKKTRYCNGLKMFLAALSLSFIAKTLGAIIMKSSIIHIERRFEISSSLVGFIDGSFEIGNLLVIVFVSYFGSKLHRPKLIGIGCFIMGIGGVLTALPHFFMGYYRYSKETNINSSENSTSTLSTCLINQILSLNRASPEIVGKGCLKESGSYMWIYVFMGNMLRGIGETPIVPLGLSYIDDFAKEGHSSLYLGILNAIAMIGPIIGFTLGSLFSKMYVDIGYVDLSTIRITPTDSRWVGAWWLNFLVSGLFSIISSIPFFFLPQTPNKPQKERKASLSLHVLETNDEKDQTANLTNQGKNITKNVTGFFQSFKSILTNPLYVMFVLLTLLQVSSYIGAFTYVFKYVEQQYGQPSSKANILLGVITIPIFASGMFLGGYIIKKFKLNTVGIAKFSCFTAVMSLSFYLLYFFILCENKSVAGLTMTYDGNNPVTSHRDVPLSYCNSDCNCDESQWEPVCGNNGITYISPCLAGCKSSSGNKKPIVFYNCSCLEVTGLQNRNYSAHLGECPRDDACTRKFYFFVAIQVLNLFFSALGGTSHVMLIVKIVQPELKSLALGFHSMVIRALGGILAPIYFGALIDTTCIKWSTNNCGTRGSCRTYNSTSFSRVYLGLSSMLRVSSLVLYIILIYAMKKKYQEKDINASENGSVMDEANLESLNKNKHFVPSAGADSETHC
multidrug resistance associated protein 2 (MRP2), sequence (Q92887 whole entry): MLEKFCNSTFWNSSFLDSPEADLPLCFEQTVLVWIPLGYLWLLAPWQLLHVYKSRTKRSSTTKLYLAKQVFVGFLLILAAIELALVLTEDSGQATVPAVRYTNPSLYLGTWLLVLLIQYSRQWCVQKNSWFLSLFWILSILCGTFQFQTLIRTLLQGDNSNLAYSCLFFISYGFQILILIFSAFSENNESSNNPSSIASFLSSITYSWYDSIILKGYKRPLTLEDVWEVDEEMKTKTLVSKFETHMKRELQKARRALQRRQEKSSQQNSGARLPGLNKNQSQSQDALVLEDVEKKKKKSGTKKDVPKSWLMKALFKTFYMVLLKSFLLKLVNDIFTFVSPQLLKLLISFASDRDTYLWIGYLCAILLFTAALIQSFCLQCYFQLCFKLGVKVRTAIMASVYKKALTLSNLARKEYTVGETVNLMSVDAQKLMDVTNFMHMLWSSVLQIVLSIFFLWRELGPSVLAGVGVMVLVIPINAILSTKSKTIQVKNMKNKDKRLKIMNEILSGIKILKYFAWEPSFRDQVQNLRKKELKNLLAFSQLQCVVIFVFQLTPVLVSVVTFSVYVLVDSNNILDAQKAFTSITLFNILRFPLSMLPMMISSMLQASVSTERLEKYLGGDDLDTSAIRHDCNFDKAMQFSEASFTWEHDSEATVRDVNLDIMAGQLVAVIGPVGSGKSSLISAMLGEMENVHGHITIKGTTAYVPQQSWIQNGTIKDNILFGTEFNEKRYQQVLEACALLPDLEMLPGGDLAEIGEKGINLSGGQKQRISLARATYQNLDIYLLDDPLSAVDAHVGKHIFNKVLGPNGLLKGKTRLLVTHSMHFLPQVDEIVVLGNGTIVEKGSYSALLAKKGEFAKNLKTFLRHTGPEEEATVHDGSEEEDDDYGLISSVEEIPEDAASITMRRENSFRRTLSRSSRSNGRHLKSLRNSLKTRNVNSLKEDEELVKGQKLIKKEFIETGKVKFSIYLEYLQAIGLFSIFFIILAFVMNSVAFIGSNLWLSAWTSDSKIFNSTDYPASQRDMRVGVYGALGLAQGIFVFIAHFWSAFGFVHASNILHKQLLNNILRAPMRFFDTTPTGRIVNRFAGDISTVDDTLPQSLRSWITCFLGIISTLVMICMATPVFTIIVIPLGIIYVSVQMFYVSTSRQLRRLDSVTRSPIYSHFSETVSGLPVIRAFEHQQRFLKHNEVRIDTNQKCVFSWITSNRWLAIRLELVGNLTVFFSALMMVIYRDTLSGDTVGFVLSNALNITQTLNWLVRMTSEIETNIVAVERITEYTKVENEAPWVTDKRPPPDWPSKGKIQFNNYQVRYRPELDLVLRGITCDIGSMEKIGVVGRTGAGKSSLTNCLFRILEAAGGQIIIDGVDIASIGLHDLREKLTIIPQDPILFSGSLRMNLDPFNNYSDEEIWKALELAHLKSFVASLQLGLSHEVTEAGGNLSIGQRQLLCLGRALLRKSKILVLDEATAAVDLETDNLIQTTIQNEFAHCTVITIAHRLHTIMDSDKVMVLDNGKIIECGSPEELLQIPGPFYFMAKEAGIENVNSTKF
bile salt export pump (BSEP), sequence (O95342 whole entry): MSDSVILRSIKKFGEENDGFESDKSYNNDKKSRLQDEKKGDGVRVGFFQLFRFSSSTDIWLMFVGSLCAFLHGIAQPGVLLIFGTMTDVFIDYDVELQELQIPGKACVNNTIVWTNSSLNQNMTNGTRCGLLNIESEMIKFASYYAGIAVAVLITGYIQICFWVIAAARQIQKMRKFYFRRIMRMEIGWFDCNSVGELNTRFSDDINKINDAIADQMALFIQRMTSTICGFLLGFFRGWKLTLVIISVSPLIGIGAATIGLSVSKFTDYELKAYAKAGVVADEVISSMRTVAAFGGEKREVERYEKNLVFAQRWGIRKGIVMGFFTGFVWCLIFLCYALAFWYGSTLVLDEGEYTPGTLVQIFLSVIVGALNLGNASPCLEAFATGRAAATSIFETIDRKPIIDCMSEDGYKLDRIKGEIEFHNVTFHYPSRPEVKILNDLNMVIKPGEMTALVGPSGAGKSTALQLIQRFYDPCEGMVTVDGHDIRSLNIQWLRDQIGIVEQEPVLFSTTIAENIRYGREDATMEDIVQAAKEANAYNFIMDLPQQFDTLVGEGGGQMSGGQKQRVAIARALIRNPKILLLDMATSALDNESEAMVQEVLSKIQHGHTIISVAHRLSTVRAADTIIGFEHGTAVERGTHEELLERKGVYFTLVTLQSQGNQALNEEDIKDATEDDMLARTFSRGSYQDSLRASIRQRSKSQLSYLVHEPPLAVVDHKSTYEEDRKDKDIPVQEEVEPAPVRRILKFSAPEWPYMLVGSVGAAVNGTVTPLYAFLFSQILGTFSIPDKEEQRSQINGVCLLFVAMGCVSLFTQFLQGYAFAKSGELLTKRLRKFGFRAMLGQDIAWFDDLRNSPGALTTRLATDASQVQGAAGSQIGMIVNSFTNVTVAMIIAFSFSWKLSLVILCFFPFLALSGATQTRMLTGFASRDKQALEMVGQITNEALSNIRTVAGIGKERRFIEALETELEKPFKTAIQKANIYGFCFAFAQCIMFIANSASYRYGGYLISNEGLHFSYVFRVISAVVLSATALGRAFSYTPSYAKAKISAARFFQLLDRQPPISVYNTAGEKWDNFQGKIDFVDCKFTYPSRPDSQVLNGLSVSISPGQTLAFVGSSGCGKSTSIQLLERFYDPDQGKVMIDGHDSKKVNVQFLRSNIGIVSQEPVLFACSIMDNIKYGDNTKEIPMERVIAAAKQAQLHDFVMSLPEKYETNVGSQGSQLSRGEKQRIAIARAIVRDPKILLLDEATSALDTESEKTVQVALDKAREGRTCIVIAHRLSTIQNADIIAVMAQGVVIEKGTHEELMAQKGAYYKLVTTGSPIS

`C/C=C/C[C@@H](C)[C@@H](O)[C@H]1C(=O)N[C@@H](CC)C(=O)N(C)[C@H](C)C(=O)N(C)[C@@H](C(C)C)C(=O)N[C@@H](CC(C)C)C(=O)N(C)[C@@H](CC(C)C)C(=O)NCC(=O)O[C@H](C(C)C)C(=O)N(C)[C@@H](CC(C)C)C(=O)N[C@@H](CC(C)C)C(=O)N(C)[C@@H](C(C)C)C(=O)N1C` [(Ia), cyclo-(MeBmt-Abu-D-MeAla-MeVal-Leu-MeLeu-Gly-D-Hiv-MeLeu-Leu-MeVal)] (cyclo([Abu][dNMeA][NMeV]L[NMeL]G[dHiv][NMeL]L[NMeV][MeBmt])) gave an IC50 in series [1] of 2000 nM. In addition, in series [2], 18000 nM corresponded to half-maximal inhibition (IC50) and the “OATP1B fold Debio 025” value amounted to 0.02. Further, the “MRP2 IC50” value in series [3] was “n.i”. In addition, in series [4], the IC50 came out at 400 nM and the “BSEP fold Debio 025” value was determined as 0.60. This compound also came in with an EC50 in series [5] of 34 nM. Moreover, the “NTCP IC50” value in series [6] (probe taurocholate, CHO cells) is recorded as “n.i”. Besides, the CC50 in series [7] came to 60100 nM.
Consider `C/C=C/C[C@@H](C)[C@@H](O)[C@H]1C(=O)N[C@@H](CC)C(=O)N(C)[C@H](C)C(=O)N(CC)[C@@H](C(C)C)C(=O)N[C@@H](CC(C)C)C(=O)N(C)[C@@H](CC(C)C)C(=O)N[C@@H](C)C(=O)O[C@H](C(C)C)C(=O)N(C)[C@@H](CC(C)C)C(=O)N[C@@H](CC(C)C)C(=O)N(C)[C@@H](C(C)C)C(=O)N1C` [(Ib), cyclo-(MeBmt-Abu-D-MeAla-EtVal-Leu-MeLeu-Ala-D-Hiv-MeLeu-Leu-MeVal)] (cyclo(A[dHiv][NMeL]L[NMeV][MeBmt][Abu][dNMeA][NEtVal]L[NMeL])), for which the IC50 in series [1] came out at 9440 nM; in series [2] it was 6200 nM; in series [4] it was 150 nM; in series [6] (probe taurocholate, CHO cells), 65000 nM. In series [2], the “OATP1B fold Debio 025” value turned out to be 0.07. Moreover, the “MRP2 IC50” value in series [3] is recorded as “n.i”. For the same compound, the “BSEP fold Debio 025” value in series [4] worked out at 1.6. Further, the EC50 in series [5] worked out at 37 nM. The “NTCP fold Debio 025” value in series [6] is listed as 0.05. In series [7], this compound had a CC50 of 52300 nM.
For the compound `C/C=C/C[C@@H](C)[C@@H](O)[C@H]1C(=O)N[C@@H](C(C)C)C(=O)N(C)[C@H](C)C(=O)N(C)[C@@H](C(C)C)C(=O)N[C@@H]([C@@H](C)CC)C(=O)N(C)[C@@H](CC(C)C)C(=O)NCC(=O)O[C@H](C(C)C)C(=O)N(C)[C@@H](CC(C)C)C(=O)N[C@@H](CC(C)C)C(=O)N(C)[C@@H](C(C)C)C(=O)N1C` [(Ic), cyclo-(MeBmt-Val-D-MeAla-MeVal-Ile-MeLeu-Gly-D-Hiv-MeLeu-Leu-MeVal)] (cyclo(G[dHiv][NMeL]L[NMeV][MeBmt]V[dNMeA][NMeV]I[NMeL])), the IC50 came to 984 nM in series [1]; 2300 nM in series [2]; 2200 nM in series [3]; 160 nM in series [4]; 30000 nM in series [6] (probe taurocholate, CHO cells). Moreover, in series [2], the “OATP1B fold Debio 025” value is on record as 0.18. For the same compound, the “MRP2 fold Debio 025” value in series [3] worked out at 6.6. Moreover, the “BSEP fold Debio 025” value in series [4] came out at 1.5. The compound further returned an EC50 in series [5] of 22 nM. The “NTCP fold Debio 025” value in series [6] is 0.11. The CC50 in series [7] came out at 86900 nM.
As to `C/C=C/C[C@@H](C)[C@@H](O)[C@H]1C(=O)N[C@@H](CC)C(=O)N(C)[C@H](C)C(=O)N(C)[C@@H](C(C)C)C(=O)N[C@@H](CC(C)C)C(=O)N(C)[C@@H](CC(C)C)C(=O)N[C@@H](C)C(=O)O[C@H](C(C)C)C(=O)N(C)[C@@H](CC(C)C)C(=O)N[C@@H](CC(C)C)C(=O)N(C)[C@@H](C(C)C)C(=O)N1C` [(Id), cyclo-(MeBmt-Abu-D-MeAla-MeVal-Leu-MeLeu-Ala-D-Hiv-MeLeu-Leu-MeVal)] (cyclo(A[dHiv][NMeL]L[NMeV][MeBmt][Abu][dNMeA][NMeV]L[NMeL])), the IC50 in series [1] came out at 1440 nM; in series [2] it was 7900 nM; in series [4], 570 nM; in series [6] (probe taurocholate, CHO cells) it was 2500 nM. In series [2], the “OATP1B fold Debio 025” value was found to be 0.05. Also, the “MRP2 IC50” value in series [3] is listed as “n.i”. Further, the “BSEP fold Debio 025” value in series [4] amounted to 0.42. Moreover, a half-maximal effect in series [5] (EC50) was put at 25 nM. In addition, the “NTCP fold Debio 025” value in series [6] is on record as 1.2. In series [7], it took 44400 nM to reach half-maximal cytotoxicity (CC50).
As for `C/C=C/C[C@@H](C)[C@@H](O)[C@H]1C(=O)N[C@@H](CC)C(=O)N(C)[C@H](C)C(=O)N(CC)[C@@H](C(C)C)C(=O)N[C@@H](C(C)C)C(=O)N(C)[C@@H](CC(C)C)C(=O)N[C@@H](C)C(=O)N[C@H](C)C(=O)N(C)[C@@H](CC(C)C)C(=O)N(C)[C@@H](CC(C)C)C(=O)N(C)[C@@H](C(C)C)C(=O)N1C` [Debio 025, [D-MeAla]^3-[EtVal]^4-CsA, reference compound], in series [2], the IC50 is 420 nM and the “OATP1B fold Debio 025” value is on record as 1. Further, in series [3], the midpoint of inhibition, the IC50, lay at 15000 nM and the “MRP2 fold Debio 025” value was determined as 1. For the same compound, in series [4], the IC50 stood at 240 nM and the “BSEP fold Debio 025” value was 1. For the same compound, the EC50 in series [5] came out at 34 nM. The “NTCP fold Debio 025” value in series [6] stood at 1. Moreover, the midpoint of inhibition in series [6] (probe taurocholate, CHO cells), the IC50, lay at 3200 nM. In series [7], this compound came in with a CC50 of 2500 nM.
In series [1], “Cyclosporin A [Cyclosporin A (CsA), reference compound]” yielded an IC50 of 6 nM.
